Results on 64 compounds are retold here after PubChem BioAssay AID743339 (Broad Institute, 2014).

Activity calls are given as the source filed them.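 How the source made its calls: active means activation curve crossing 200% at or below the highest valid dose tested for that sample; inconclusive means flat curve with activation between 30 and 70%, or poor fit; inactive means the rest, including signal falling instead of rising.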

Leucyl-cystinyl aminopeptidase (Mus musculus), sequence (Q8C129 whole entry, looked up): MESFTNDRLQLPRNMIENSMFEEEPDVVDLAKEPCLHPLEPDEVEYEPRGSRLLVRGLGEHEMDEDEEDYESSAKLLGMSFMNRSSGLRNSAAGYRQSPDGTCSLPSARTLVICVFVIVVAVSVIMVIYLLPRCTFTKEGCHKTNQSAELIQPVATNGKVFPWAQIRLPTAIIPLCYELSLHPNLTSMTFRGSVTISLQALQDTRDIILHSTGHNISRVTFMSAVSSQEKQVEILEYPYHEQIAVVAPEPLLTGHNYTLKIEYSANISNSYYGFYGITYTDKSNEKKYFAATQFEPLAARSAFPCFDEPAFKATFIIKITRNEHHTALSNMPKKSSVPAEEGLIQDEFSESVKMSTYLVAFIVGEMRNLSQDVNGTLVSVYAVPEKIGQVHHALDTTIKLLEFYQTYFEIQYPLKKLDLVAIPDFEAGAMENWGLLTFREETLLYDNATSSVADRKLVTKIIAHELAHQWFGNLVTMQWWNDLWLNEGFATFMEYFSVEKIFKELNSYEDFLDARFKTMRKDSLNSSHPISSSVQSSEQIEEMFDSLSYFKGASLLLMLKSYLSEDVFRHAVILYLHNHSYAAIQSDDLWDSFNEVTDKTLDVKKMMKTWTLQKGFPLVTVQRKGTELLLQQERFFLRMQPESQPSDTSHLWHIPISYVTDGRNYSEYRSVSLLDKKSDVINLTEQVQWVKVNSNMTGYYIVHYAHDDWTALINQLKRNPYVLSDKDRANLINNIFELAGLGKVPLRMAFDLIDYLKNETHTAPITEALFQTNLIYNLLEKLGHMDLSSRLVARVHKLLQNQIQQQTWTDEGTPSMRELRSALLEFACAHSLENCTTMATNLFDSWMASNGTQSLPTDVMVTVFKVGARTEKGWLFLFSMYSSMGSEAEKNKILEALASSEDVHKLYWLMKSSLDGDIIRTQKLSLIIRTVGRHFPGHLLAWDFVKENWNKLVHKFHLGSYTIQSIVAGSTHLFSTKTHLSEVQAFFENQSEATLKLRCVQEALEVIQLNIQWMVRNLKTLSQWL

The first experiment addresses Leucyl-cystinyl aminopeptidase (Mus musculus) (UniProt Q8C129). The experiment is described as follows: activation of mouse IRAP aminopeptidase activity – biochemical, Leu-AMC fluorescence, cherry-picked samples, selectivity assay for ERAP1 modulator project, dose response (AID 743339). Particulars: purified IRAP, Leu-AMC cleavage fluorescence, 1 h.
Consider `CCCCc1cc(=O)oc2cc(O)ccc12`, for which the AC200 was 1670 nM. On to `O=C(NCC1CC1)[C@H]1[C@H](CO)[C@H]2Cn3c(ccc(/C=C/c4ccccc4)c3=O)[C@@H]1N2C(=O)C1CC1`, for which the AC200 is 927 nM.

On to `CCN(CC)Cc1c(O)ccc2cc(-c3nc4ccccc4n3C)c(=O)oc12`, for which the AC200 is 229 nM.

As for `COc1ccc(-c2cc3ccc(O)cc3oc2=O)cc1OC`, the AC200 was 983 nM. In the case of `COC(=O)[C@@H]1[C@@H](CO)[C@@H]2Cn3c(ccc(/C=C/c4ccccc4)c3=O)[C@H]1N2C(=O)C1CCC1`, the AC200 is 1080 nM. On the same count and under the same terms, the same measure for `Cc1cc(=O)oc2c(CN3CCN(C)CC3)c(O)c(Cl)cc12`: 634 nM; for `CN1CCCC1CCNc1ccc2c(=O)c3ccccc3oc2c1` (centres undefined): 555 nM. On the same count and under the same terms, the result for `CCc1c(C)c2cc(Cl)c(O)c(CN(C)C)c2oc1=O` reads 471 nM; that for `CC(=O)N1[C@@H]2c3ccc(/C=C/c4ccccc4)c(=O)n3C[C@H]1[C@H](CO)[C@H]2C(=O)N1CCOCC1`, 1100 nM; that for `CCCc1cc(=O)oc2c(CN(CC)CC)c(O)c(Cl)cc12`, 638 nM. The same measure, in the same setting: the same measure for `CCN1CCN(Cc2c(O)ccc3c(C)cc(=O)oc23)CC1`: 1540 nM; for `COC(=O)[C@H]1[C@H](CO)[C@H]2Cn3c(ccc(/C=C/c4ccccc4)c3=O)[C@@H]1N2C(=O)C1CCC1`: 842 nM; for `O=C(NCc1ccccn1)[C@@H]1[C@@H](CO)[C@@H]2Cn3c(ccc(/C=C/c4ccccc4)c3=O)[C@H]1N2CC1CC1`: 1030 nM. Regarding `CN(C)Cc1c(O)ccc2cc(-c3nc4ccccc4n3C)c(=O)oc12`, the AC200 is 202 nM.

Regarding `CCc1cc(=O)oc2c(CNCc3c(F)cccc3Cl)c(O)ccc12`, the AC200 is 832 nM. The same measure, in the same setting: the same measure for `COc1ccc(CNCc2c(O)c(Cl)cc3c(C)c(C)c(=O)oc23)c(OC)c1`: 493 nM; for `COc1ccc(-c2cc3ccc(O)cc3oc2=O)cc1`: 398 nM; for `Cc1cc(=O)oc2c(CN3CCN(CCO)CC3)c(O)ccc12`: 1450 nM. For `CCC(=O)N1[C@@H]2c3ccc(/C=C/c4ccccc4)c(=O)n3C[C@H]1[C@H](CO)[C@H]2C(=O)N(C)C`, the AC200 was 872 nM.

Turning to `Cc1cc(=O)oc2cc(NS(=O)(=O)c3ccc(F)cc3)ccc12`, the AC200 is 998 nM. The same measure, in the same setting: the same measure for `O=c1ccc2cc(OC3O[C@H](CO)[C@@H](O)[C@H](O)[C@H]3O)c(O)cc2o1` (some centres undefined): 346 nM.

As for `O=c1ccc2cc(O)c(O)cc2o1`, the AC200 was 2120 nM. On the same count and under the same terms, the same measure for `COCC(=O)N1[C@@H]2Cn3c(ccc(/C=C/c4ccccc4)c3=O)[C@H]1[C@@H](C(=O)N1CCOCC1)[C@@H]2CO`: 757 nM; for `CCN(CC)c1ccc2c(C)c(Cl)c(=O)oc2c1`: 964 nM; for `O=c1ccc2cc(O[C@@H]3O[C@@H](CO)[C@H](O)[C@@H](O)[C@@H]3O)c(O)cc2o1`: 363 nM. On the same count and under the same terms, the same measure for `CCN(CC)Cc1c(O)c(Cl)cc2c(C)cc(=O)oc12`: 620 nM; for `O=c1cc(CN2CCOCC2)c2cc(Cl)c(O)cc2o1`: 1100 nM.

Staying with this experiment, now noted: purified IRAP, Leu-AMC cleavage fluorescence, 1 h; at 2.6 µM (top of the series).
As for `C[C@@H]1CCCCO[C@@H](CN(C)C(=O)CCC(F)(F)F)[C@@H](C)CN([C@@H](C)CO)C(=O)c2cc(NS(=O)(=O)c3ccccc3)ccc2O1`, the activation was 11.6% (inactive).

Staying with this experiment, now noted: purified IRAP, Leu-AMC cleavage fluorescence, 1 h; at 5 µM (top of the series).
Regarding `C[C@@H]1CCCCO[C@@H](CN(C)C(=O)CCC(F)(F)F)[C@@H](C)CN([C@@H](C)CO)C(=O)c2cc(NS(=O)(=O)c3ccc(Cl)cc3)ccc2O1`, the activation is 22.3% (inactive).

The same experiment, now with this note: purified IRAP, Leu-AMC cleavage fluorescence, 1 h; at 5.6 µM (top of the series).
As for `Cc1ccc(-c2cc(C(=O)N3CCCC3)c3ccccc3n2)s1`, the activation is 152% (inactive). On the same count and under the same terms, the same measure for `C[C@@H]1CCCCO[C@@H](CN(C)Cc2ccccc2)[C@@H](C)CN([C@H](C)CO)C(=O)c2cc(NS(=O)(=O)c3cccs3)ccc2O1`: 16.2% (inactive); for `C[C@@H]1CCCCO[C@@H](CN(C)Cc2ccc3c(c2)OCO3)[C@@H](C)CN([C@@H](C)CO)C(=O)c2cc(NS(=O)(=O)c3ccccc3)ccc2O1`: 7.88% (inactive).

Still in this experiment, the particulars now being: purified IRAP, Leu-AMC cleavage fluorescence, 1 h; at 8 µM (top of the series).
Turning to `CCCN(C)C[C@@H]1OCCCC[C@@H](C)Oc2ccc(NS(=O)(=O)c3ccc(OC)cc3)cc2C(=O)N([C@H](C)CO)C[C@@H]1C`, the activation was -24.7% (inactive).

Still in this experiment, the particulars now being: purified IRAP, Leu-AMC cleavage fluorescence, 1 h; at 10 µM (top of the series).
As for `Cc1noc(C)c1S(=O)(=O)Nc1ccc2c(c1)C(=O)N([C@H](C)CO)C[C@H](C)[C@H](CN(C)Cc1ccc3c(c1)OCO3)OCCCC[C@@H](C)O2`, the activation is -18.4% (inactive). The same measure, in the same setting: the result for `Cc1noc(C)c1S(=O)(=O)N(C)C[C@@H]1OCCCC[C@@H](C)Oc2ccc(NS(=O)(=O)c3cccs3)cc2C(=O)N([C@@H](C)CO)C[C@@H]1C` reads -12.6% (inactive).

The same experiment, now with this note: purified IRAP, Leu-AMC cleavage fluorescence, 1 h; at 11 µM (top of the series).
In the case of `COc1ccc(CN(C)C[C@H]2OCCCC[C@@H](C)Oc3ccc(NS(=O)(=O)c4cccs4)cc3C(=O)N([C@@H](C)CO)C[C@H]2C)cc1`, the activation is 2.6% (inactive). On the same count and under the same terms, the result for `C[C@@H]1CCCCO[C@@H](CN(C)CC2CC2)[C@@H](C)CN([C@H](C)CO)C(=O)c2cc(NS(=O)(=O)c3ccc(Cl)cc3)ccc2O1` reads -6.39% (inactive); that for `O=C(O)c1cccc(NC(=O)c2ccccc2NC(=O)c2cccc([N+](=O)[O-])c2)c1`, 8.03% (inactive); that for `C[C@@H]1CCCCO[C@@H](CN(C)CC2CCCCC2)[C@H](C)CN([C@@H](C)CO)C(=O)c2cc(NC(=O)Nc3ccccc3)ccc2O1`, -13.9% (inactive). Same read-out and setting: the same measure for `Cc1noc(C)c1NC(=O)N(C)C[C@@H]1Oc2c(NC(=O)Nc3ccc(F)cc3)cccc2C(=O)N([C@H](C)CO)C[C@@H]1C`: 36.7% (inactive); for `COc1ccc2c3c([nH]c2c1)[C@H](CO)N(Cc1cc(F)ccc1F)CC31CN(C)C1`: 1.85% (inactive). For `CCCN(C)C[C@@H]1OCCCC[C@@H](C)Oc2ccc(NS(=O)(=O)c3ccccc3)cc2C(=O)N([C@H](C)CO)C[C@@H]1C`, the activation was -6.67% (inactive). On the same count and under the same terms, the same measure for `CCC(=O)N(C)C[C@@H]1Oc2ncc(C#Cc3ccncc3)cc2C(=O)N([C@@H](C)CO)C[C@@H]1C`: 2.82% (inactive); for `C[C@@H]1CCCCO[C@H](CN(C)Cc2ccc(C(=O)O)cc2)[C@@H](C)CN([C@H](C)CO)C(=O)c2cc(NC(=O)Nc3ccc(C(F)(F)F)cc3)ccc2O1`: 9.92% (inactive); for `CCC(=O)N(C)C[C@H]1Oc2ncc(C#Cc3ccncc3)cc2C(=O)N([C@H](C)CO)C[C@H]1C`: 4.22% (inactive). As for `O=C(C[C@@H]1CC[C@@H]2[C@H](COC[C@H](O)CN2C(=O)Nc2cccc(Cl)c2)O1)N1CCCCC1`, the activation was 7.14% (inactive). For the compound `COc1ccc(CN(C)C[C@H]2OCCCC[C@@H](C)Oc3ccc(NS(=O)(=O)c4cccs4)cc3C(=O)N([C@H](C)CO)C[C@H]2C)cc1`, the activation was 10% (inactive). The same measure, in the same setting: the same measure for `C[C@@H]1CN([C@H](C)CO)C(=O)c2cc(NC(=O)Nc3ccc(F)cc3)ccc2O[C@H]1CN(C)Cc1ccc(C(=O)O)cc1`: 1.25% (inactive); for `C[C@@H]1CCCCO[C@@H](CN(C)Cc2ccc3c(c2)OCO3)[C@@H](C)CN([C@H](C)CO)C(=O)c2cc(NS(=O)(=O)c3cccs3)ccc2O1`: -8.52% (inactive). Same read-out and setting: the result for `CCCNC(=O)C[C@@H]1CC[C@@H]2[C@H](COC[C@H](O)CN2C(=O)Nc2cccc(Cl)c2)O1` reads 30.1% (inactive).

As for `C[C@@H]1CCCCO[C@@H](CN(C)S(C)(=O)=O)[C@@H](C)CN([C@@H](C)CO)C(=O)c2cc(NS(=O)(=O)c3ccc(Cl)cc3)ccc2O1`, the activation was -13.3% (inactive). Still for that read-out and setting: the same measure for `C[C@H](CO)N1C[C@H](C)[C@H](CN(C)CC2CCCCC2)Oc2c(NC(=O)Nc3ccc4c(c3)OCO4)cccc2C1=O`: -3.26% (inactive). Same read-out and setting: the result for `Cc1ccccc1-c1ccc2c(c1)O[C@@H](CN(C)Cc1ccc(C(=O)O)cc1)[C@@H](C)CN([C@H](C)CO)S2(=O)=O` reads 3.78% (inactive). The same measure, in the same setting: the result for `O=C(Nc1ccc(C(F)(F)F)cc1)N1[C@@H]2CNC[C@H]1C2c1ccc(-c2ccncc2)cc1` (some centres undefined) reads 4.27% (inactive). In the case of `C[C@@H]1CCCCO[C@H](CN(C)C)[C@H](C)CN([C@H](C)CO)C(=O)c2cc(NS(=O)(=O)c3ccc(Cl)cc3)ccc2O1`, the activation was 8.36% (inactive). The same measure, in the same setting: the same measure for `COc1ccc(S(=O)(=O)Nc2ccc3c(c2)C(=O)N([C@@H](C)CO)C[C@H](C)[C@H](CN(C)C)OCCCC[C@@H](C)O3)cc1`: -2.35% (inactive).

As for `C[C@H]1CN([C@@H](C)CO)C(=O)c2cccc(NC(=O)Nc3ccc4c(c3)OCO4)c2O[C@@H]1CN(C)CC1CC1`, the activation is -1.26% (inactive). Same read-out and setting: the same measure for `C[C@H]1CN([C@@H](C)CO)C(=O)c2cccc(NC(=O)Nc3ccc(C(F)(F)F)cc3)c2O[C@@H]1CN(C)CC1CC1`: -18.4% (inactive); for `C[C@H](CO)N1C[C@H](C)[C@H](CN(C)Cc2ccc(C(=O)O)cc2)Oc2c(NC(=O)Nc3ccccc3)cccc2C1=O`: 24.2% (inactive). The same measure, in the same setting: the same measure for `C[C@H]1CN([C@@H](C)CO)C(=O)c2cccc(NC(=O)Nc3ccc(C(F)(F)F)cc3)c2O[C@@H]1CN(C)C`: -7.32% (inactive); for `O=C(C[C@H]1CC[C@H]2[C@@H](COC[C@@H](O)CN2C(=O)Nc2cccc(Cl)c2)O1)N1CCCCC1`: 16.9% (inactive); for `C[C@H](CO)N1C[C@H](C)[C@H](CN(C)Cc2ccncc2)Oc2c(NC(=O)Nc3ccc(C(F)(F)F)cc3)cccc2C1=O`: 10.6% (inactive). Still for that read-out and setting: the same measure for `COc1ccc(NC(=O)Nc2ccc3c(c2)C(=O)N([C@H](C)CO)C[C@@H](C)[C@H](CN(C)Cc2ccc(C(=O)O)cc2)OCCCC[C@@H](C)O3)cc1`: 10% (inactive). As to `C[C@@H]1CCCCO[C@@H](CN(C)Cc2ccccc2)[C@H](C)CN([C@H](C)CO)C(=O)c2cc(NS(=O)(=O)c3cccs3)ccc2O1`, the activation is -6.87% (inactive).
